# pIC50: −log10 of the molar value.
# What was measured:
# [1] = molecular target: Indoleamine 2,3-dioxygenase 1 (Homo sapiens) (UniProt P14902); test: Inhibition of recombinant human IDO at 10 uM using L-tryptophan as substrate after 60 mins relative to control
# A-431 [2] = test: Inhibition of kynurenine production in IFNgamma-treated human A431 cells at 1 uM after 24 hrs in presence of tryptophan relative to control; assay type: functional; conditions: A-431, 24 h
# A-431 [3] = test: Inhibition of kynurenine production in IFNgamma-treated human A431 cells after 24 hrs in presence of tryptophan; assay type: functional, cell-based; conditions: A-431, 24 h
# A-431 [4] = test: Cytotoxicity against human A431 cells at 100 uM; assay type: cell-based; conditions: a-431, 100 µM
# A-431 [5] = test: Inhibition of IFNgamma-induced IDO expression in human A431 cells after 24 hrs by Western blot method; assay type: functional, cell-based
# A-431 [6] = test: Inhibition of IFNgamma-induced STAT1 expression in human A431 cells after 24 hrs by Western blot method; assay type: functional, cell-based
# A-431 [7] = test: Inhibition of kynurenine production in IFNgamma-treated human A431 cells at 10 uM after 24 hrs in presence of tryptophan relative to control; assay type: functional; conditions: A-431, 24 h
# A-431 [8] = test: Cytotoxicity against human A431 cells; assay type: cell-based
# Indoleamine 2,3-dioxygenase 1 (Homo sapiens), sequence (P14902 whole entry, looked up): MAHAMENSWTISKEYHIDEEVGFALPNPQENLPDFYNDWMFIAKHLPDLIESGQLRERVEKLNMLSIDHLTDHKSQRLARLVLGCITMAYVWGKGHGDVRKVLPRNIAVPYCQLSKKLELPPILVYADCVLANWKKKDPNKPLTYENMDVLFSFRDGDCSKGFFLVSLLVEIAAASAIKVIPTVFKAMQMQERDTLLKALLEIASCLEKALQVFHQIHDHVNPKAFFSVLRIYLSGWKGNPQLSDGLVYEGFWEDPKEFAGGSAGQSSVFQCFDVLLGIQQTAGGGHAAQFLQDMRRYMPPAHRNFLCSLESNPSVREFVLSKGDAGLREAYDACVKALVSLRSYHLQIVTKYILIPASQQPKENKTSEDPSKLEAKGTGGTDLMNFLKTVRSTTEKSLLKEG
Compound,inhibition [1] [%],inhibition at 1 µM (A-431 [2]) [%],other results
Clc1ccc2[nH]c(SCc3ccccc3CCCc3ccccc3)nc2c1,19,44,
Clc1ccc2[nH]c(SCc3ccccc3OCc3ccccc3)nc2c1,3,30,
Clc1ccc2[nH]c(SCc3ccccc3SCc3ccccc3)nc2c1,19,,pIC50 (A-431 [3]): 6.35; Activity (A-431 [4]): Non-Toxic; inhibition (A-431 [5]): Dose-dependent effect; inhibition (A-431 [6]): Dose-dependent effect
c1ccc(CCc2ccccc2CSC2=NCCN2)cc1,17,7,
Clc1ccc2[nH]c(SCc3ccccc3/C=C/c3ccccc3)nc2c1,-6,15,
Clc1ccc2[nH]c(SCc3ccccc3Cc3ccccc3)nc2c1,46,13,
c1ccc(CCc2ccccc2CSc2ncc[nH]2)cc1,19,1,
N=C(N)SCc1ccccc1,,,inhibition at 10 µM (A-431 [7]): 44%
Clc1ccc2[nH]c(SCc3ccccc3C#Cc3ccccc3)nc2c1,52,6,
c1ccc(CCc2ccccc2CSC2=NCCS2)cc1,0,0,
c1ccc(CCc2ccccc2CSc2nccs2)cc1,31,7,
[O-][S+](Cc1ccccc1)c1ccccc1CSc1nc2cc(Cl)ccc2[nH]1 (stereo not drawn),11,30,
Clc1ccc2sc(SCc3ccccc3CCc3ccccc3)nc2c1,9,-8,
c1ccc(CCc2ccccc2CSc2nc3ccccc3[nH]2)cc1,43,43,Activity (A-431 [8]): Non-Toxic
Clc1ccc2oc(SCc3ccccc3CCc3ccccc3)nc2c1,21,-18,
Clc1ccc2[nH]c(SCc3ccccc3Oc3ccccc3)nc2c1,30,39,
O=S(=O)(Cc1ccccc1)c1ccccc1CSc1nc2cc(Cl)ccc2[nH]1,24,1,
Clc1ccc2[nH]c(SCc3ccccc3/C=C\c3ccccc3)nc2c1,49,,pIC50 (A-431 [3]): 6.47; Activity (A-431 [4]): Non-Toxic
Clc1ccc2[nH]c(SCc3ccccc3CCc3ccccc3)nc2c1,47,48,Activity (A-431 [8]): Non-Toxic

# — ChEMBL document CHEMBL4229487, “Cyclic analogue of S-benzylisothiourea that suppresses kynurenine production without inhibiting indoleamine 2,3-dioxygenase activity” (Bioorg Med Chem Lett, 2018)
